{
  "source": "patent US20230250478A1",
  "about": "“DIAGNOSIS AND TREATMENT OF CHRONIC DIABETIC COMPLICATIONS USING LONG NONCODING RNAS AS TARGETS” (THE UNIVERSITY OF WESTERN ONTARIO, priority 2020, published 2023)",
  "assay_type_in_all_cases": "cell-based, human",
  "key": {"HOTAIR": {"tested_on": "HOTAIR", "test": "siRNA-mediated knockdown of HOTAIR in HRECs, RT-qPCR", "details": "for reduction of HOTAIR RNA levels: HG-cultured HRECs, 48 hours, compared to SCR HG controls; for transcript levels of VEGF-A, ET-1 and ANGPTL4: custom double-stranded siRNAs, HRECs, HG", "experimental": "Human retinal microvascular endothelial cells (HRECs; Cell Systems, Kirkland, Wash., USA; catalog number ACBRI 181), mouse retinal microvascular endothelial cells (MRECs; Applied Biological Materials Inc., Richmond, BC, CAN), and primary lung endothelial cells (MLECs) from C57BL/6J mice were cultured in endothelial basal media-2 (EBM-2, Lonza, Walkersville, Md., USA) containing endothelial growth media-2 (EGM-2) SingleQuots (Lonza). All cells were grown in 75 cm^2 culture flasks and maintained in a humidified incubator containing 5% CO2 at 37° C. As described previously (22,55,56), in order to reduce variability for experimentation, cells were used between passages three and six and the cellular densities were determined accordingly based on the type of culture plates used for each experiment. Generally, once 80% confluence was obtained post-seeding, ECs were cultured in serum and growth factor-free medium overnight before exposure to different D-glucose levels (final glucose concentrations of 5 mmol/L, mimicking normoglycemia [NG], and 25 mmol/L, mimicking hyperglycemia [HG]) for various durations; the selected glucose levels are based on a large volume of previous experiments (22,27,33,55-57). All in vitro or ex vivo experiments were independently repeated at least three times and performed with six replicates, unless specified.\nHRECs were transfected using scrambled siRNAs (ID number: AM4635 [SCR], Thermo Fisher Scientific) or pre-designed siRNAs targeting human HOTAIR (ID: n272221 [si1-HOTAIR], Thermo Fisher Scientific; n272222 [si2-HOTAIR], Thermo Fisher Scientific; R-187951-00-0005 [SMARTpool siHOTAIR], Horizon Discovery; Table 6, top panel), EZH2 (ID: M-004218-03-0005 [SMARTpool si-EZH2], Horizon Discovery), CTCF (ID: M-020165-02-0005 [SMARTpool siCTCF], Horizon Discovery), DNMT1 (ID: s4216 [siDNMT1], Thermo Fisher Scientific) or mouse Hotair (ID: R-173526-00-0005 [SMARTpool siHOTAIR], Horizon Discovery, Table 6, bottom panel) using Lipofectamine 2000 (Invitrogen, Burlington, ON, Canada) and Opti-MEM reduced serum media (Thermo Fisher Scientific). As documented previously by us (22,27,33,55-57), cells were transfected with 100 nM of each siRNA for 3-4 hours and subsequently recovered in complete EBM-2 overnight. Cells were then serum starved the following morning, between 18-24 hours, and then incubated with specific glucose concentrations (5 mmol/L or 25 mmol/L) for 48 hours. Knockdown of the target genes were then confirmed using RT-qPCR.\n(§1) As extensively described by us (22,27,33,55-57), total RNA was extracted using the TRIzol reagent (Invitrogen). Once total RNA was obtained, a spectrophotometer (260 nm; Gene Quant, Pharmacia Biotech, USA) was used to quantify RNA concentrations in which 1-2 μg of total RNA was reverse transcribed to complementary DNA (cDNA) using a high-capacity cDNA reverse-transcription kit (Applied Biosystems/Thermo Fisher Scientific). cDNA was then amplified in the LightCycler 96 System (Roche Diagnostics, Laval, QC, CAN) using the SYBR-green master mix (Takara Bio, Mountain View, Calif., USA) and specific primers for the genes of interest (Sigma; Tables 1-2). RT-qPCR results were analyzed using the LightCycler 96 SW 1.1 software (Roche) and expression levels were calculated by the relative standard curve method using β-actin as an internal control for sample normalization."}, "HRECs [1]": {"tested_on": "HRECs", "test": "Trypan blue exclusion assay", "details": "2-DG-treated HRECs, data not shown"}, "HRECs [2]": {"tested_on": "HRECs", "test": "2-DG pre-treatment of HRECs, RT-qPCR", "experimental": "(§2) Following the concentrations documented in previous studies, DZNep (Cayman Chemical, Ann Arbor, Mich., USA; 5 μM), 5-aza-dC (Sigma, St. Louis, USA; 5 μM) or 2-DG (Sigma; 0.6 mM and 5 mM) pre-treatment was applied to HRECs for 1 hour prior to the addition of D-glucose (22,27,55,58). DZNep, 5-aza-dC or 2-DG-treated HRECs and their respective controls were collected at 48 hours for further analyses.\nas §1"}, "HRECs [3]": {"tested_on": "HRECs", "test": "5-aza-dC pre-treatment of HRECs, RT-qPCR", "experimental": "as §2, §1"}, "HRECs [4]": {"tested_on": "HRECs", "test": "DZNep pre-treatment of HRECs, RT-qPCR", "experimental": "as §2, §1"}, "[5]": {"details": "5-aza-dC 5 μM, HRECs, compared to HG controls"}, "[6]": {"details": "DZNep 5 μM plus HG, 48 hours, compared to SCR HG cells"}},
  "data": [
    {"compound": "siHOTAIR SB2: custom 21-nt duplex siRNA; sense CAUAAACAAUAUAUCUGUUGG, antisense AACAGAUAUAUUGUUUAUGAG; HOTAIR target position 1156-1178 (RNA, backbone not given here) [custom 21-nt duplex siRNA; HOTAIR target position 1156-1178]", "values": [
      {"measurement": "reduction of HOTAIR RNA levels", "setting": "HOTAIR", "value": "~41", "unit": "%"},
      {"measurement": "transcript levels of VEGF-A, ET-1 and ANGPTL4", "setting": "HOTAIR", "value": "greatest reductions"}
    ]},
    {"compound": "siHOTAIR SB3: custom 21-nt duplex siRNA; sense CUCUAUAAUAUGCUUAUAUUA, antisense AUAUAAGCAUAUUAUAGAGUU; HOTAIR target position 1700-1722 (RNA, backbone not given here) [custom 21-nt duplex siRNA; HOTAIR target position 1700-1722]", "values": [
      {"measurement": "reduction of HOTAIR RNA levels", "setting": "HOTAIR", "value": "~57", "unit": "%"}
    ]},
    {"compound": "siHOTAIR SB1: custom 21-nt duplex siRNA; sense CCAAAGAGUCUGAUGUUUACA, antisense UAAACAUCAGACUCUUUGGGG; HOTAIR target position 457-479 (RNA, backbone not given here) [custom 21-nt duplex siRNA; HOTAIR target position 457-479]", "values": [
      {"measurement": "reduction of HOTAIR RNA levels", "setting": "HOTAIR", "value": "~67", "unit": "%"},
      {"measurement": "transcript levels of VEGF-A, ET-1 and ANGPTL4", "setting": "HOTAIR", "value": "greatest reductions"}
    ]},
    {"compound": "O=CC[C@@H](O)[C@H](O)[C@H](O)CO", "note": "[2-DG, 2-deoxy-D-glucose]", "values": [
      {"measurement": "viability", "setting": "HRECs [1]", "value": "45-55%"},
      {"measurement": "HOXD3 and HOXD10 expressions", "setting": "HRECs [2]; 5 mM 2-DG, HRECs cultured with HG, compared to HG controls", "value": "significantly upregulated"},
      {"measurement": "PARP1 and P300 expressions", "setting": "HRECs [2]; 5 mM 2-DG, HRECs, HG", "value": "did not induce significant reductions"},
      {"measurement": "expressions of DNMT3A and DNMT3B", "setting": "HRECs [2]; 5 mM of 2-DG, HRECs, HG", "value": "no differences were observed"},
      {"measurement": "expressions of EZH2, SUZ12, EED and DNMT1", "setting": "HRECs [2]; 5 mM of 2-DG, HRECs, HG", "value": "significant reductions"},
      {"measurement": "HG-induced expressions of HOTAIR, VEGF-A, ET-1, ANGPTL4, MCP-1, IL-1β, CTCF and Cytochrome B", "setting": "HRECs [2]; 2-DG 0.6 or 5 mM, HRECs, HG 48 hours", "value": "significantly blocked"}
    ]},
    {"compound": "siHOTAIR SB4: custom 21-nt duplex siRNA; sense GUGUAUAUAUAAUAAUGUAUU, antisense UACAUUAUUAUAUAUACACAA; HOTAIR target position 2160-2182 (RNA, backbone not given here) [custom 21-nt duplex siRNA; HOTAIR target position 2160-2182]", "values": [
      {"measurement": "reduction of HOTAIR RNA levels", "setting": "HOTAIR", "value": "~32", "unit": "%"}
    ]},
    {"compound": "Nc1ncn([C@H]2C[C@H](O)[C@@H](CO)O2)c(=O)n1", "note": "[5-aza-dC, 5-Aza-2′-deoxycytidine]", "values": [
      {"measurement": "reduction of DNMT3A RNA levels", "setting": "HRECs [3]; [5]", "value": "~58", "unit": "%"},
      {"measurement": "reduction of DNMT3B RNA levels", "setting": "HRECs [3]; [5]", "value": "~69", "unit": "%"},
      {"measurement": "ANGPTL4, P300 and PARP1 expressions", "setting": "HRECs [3]; 5-aza-dC-treated HRECs, HG", "value": "no significant differences"},
      {"measurement": "HOTAIR, ET-1, CTCF, Cytochrome B, MCP-1, IL-1β, HOXD3 and HOXD10 transcripts", "setting": "HRECs [3]; 5-aza-dC-treated HRECs, HG", "value": "significant elevations"},
      {"measurement": "glucose-induced increases in VEGF-A RNA expressions", "setting": "HRECs [3]; 5-aza-dC-treated HRECs, HG", "value": "significantly prevented"},
      {"measurement": "HOTAIR expressions and its downstream targets", "setting": "HRECs [3]; summary statement in Example 3", "value": "can reduce"}
    ]},
    {"compound": "Nc1nccc2c1ncn2[C@@H]1C=C(CO)[C@@H](O)[C@H]1O", "note": "[DZNep, 3-Deazaneplanocin A]", "values": [
      {"measurement": "HOTAIR, VEGF-A, ANGPTL4, CTCF, PARP1, P300 and Cytochrome B transcripts", "setting": "HRECs [4]; DZNep 5 μM and HG, compared to SCR HG controls", "value": "statistically significant reductions"},
      {"measurement": "reduction of EED transcripts", "setting": "HRECs [4]; [6]", "value": "~61", "unit": "%"},
      {"measurement": "reduction of EZH2 transcripts", "setting": "HRECs [4]; [6]", "value": "~72", "unit": "%"},
      {"measurement": "reduction of SUZ12 transcripts", "setting": "HRECs [4]; [6]", "value": "~48", "unit": "%"},
      {"measurement": "ET-1, MCP-1, IL-1β, HOXD3 and HOXD10 transcripts", "setting": "HRECs [4]; DZNep 5 μM pre-treatment plus HG culture", "value": "significantly augmented"},
      {"measurement": "HOTAIR expressions and its downstream targets", "setting": "HRECs [4]; summary statement in Example 3", "value": "can reduce"}
    ]}
  ]
}
